The results in this text go back to ChEMBL document CHEMBL4507295 (2021).

Series [1] concerns the target Peripheral plasma membrane protein CASK (Homo sapiens) (UniProt O14936). The note with it: Compound concentration 1000.0 nM.
Series [2] deals with Mitogen-activated protein kinase kinase kinase 10 (Homo sapiens) (UniProt Q02779). The note with it: Compound concentration 1000.0 nM.
Series [3] addresses Phosphatidylinositol 4,5-bisphosphate 3-kinase catalytic subunit beta isoform (Homo sapiens) (UniProt P42338). The note with it: Compound concentration 1000.0 nM.
The target in series [4] is Tyrosine-protein kinase CSK (Homo sapiens) (UniProt P41240). The note with it: Compound concentration 1000.0 nM.
Tyrosine-protein kinase CSK (Homo sapiens), sequence (P41240 2-450 limits assumed): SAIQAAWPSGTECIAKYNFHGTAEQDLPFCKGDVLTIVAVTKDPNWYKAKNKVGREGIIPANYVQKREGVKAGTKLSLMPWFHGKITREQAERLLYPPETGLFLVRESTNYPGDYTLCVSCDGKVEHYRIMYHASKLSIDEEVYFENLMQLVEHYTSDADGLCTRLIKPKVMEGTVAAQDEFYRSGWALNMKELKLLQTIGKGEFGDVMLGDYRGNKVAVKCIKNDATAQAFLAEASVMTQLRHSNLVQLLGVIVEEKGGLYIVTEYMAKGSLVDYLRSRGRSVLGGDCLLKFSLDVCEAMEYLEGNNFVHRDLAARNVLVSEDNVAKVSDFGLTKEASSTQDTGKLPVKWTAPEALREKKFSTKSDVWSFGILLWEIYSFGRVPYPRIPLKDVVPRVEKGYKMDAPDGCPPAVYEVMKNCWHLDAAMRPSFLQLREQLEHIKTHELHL
Series [5] has as its target Mitogen-activated protein kinase 10 (Homo sapiens) (UniProt P53779). The note with it: Compound concentration 1000.0 nM.
Series [6] has as its target Serine/threonine-protein kinase TBK1 (Homo sapiens) (UniProt Q9UHD2). The note with it: Compound concentration 1000.0 nM.
The target of series [7] is Casein kinase II subunit alpha' (Homo sapiens) (UniProt P19784). The note with it: Compound concentration 1000.0 nM.
Casein kinase II subunit alpha' (Homo sapiens), sequence (P19784 whole entry, looked up): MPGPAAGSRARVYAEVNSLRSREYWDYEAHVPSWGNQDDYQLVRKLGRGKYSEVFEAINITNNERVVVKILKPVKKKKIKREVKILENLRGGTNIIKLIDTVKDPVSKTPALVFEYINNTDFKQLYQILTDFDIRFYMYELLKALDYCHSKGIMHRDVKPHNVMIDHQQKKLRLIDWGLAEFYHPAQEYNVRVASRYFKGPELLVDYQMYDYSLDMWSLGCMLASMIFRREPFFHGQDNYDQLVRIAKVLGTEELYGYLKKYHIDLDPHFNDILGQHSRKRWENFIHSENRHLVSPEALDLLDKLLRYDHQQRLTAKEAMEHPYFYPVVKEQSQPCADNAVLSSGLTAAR
Series [8] deals with Tyrosine-protein kinase Blk (Homo sapiens) (UniProt P51451). The note with it: Compound concentration 1000.0 nM.
The target in series [9] is C-C chemokine receptor type 1 (Homo sapiens) (UniProt P32246). Kind of series: Chemokine CCR1 Eurofins-Panlabs radioligand binding assay. The note with it: Compound concentration 10.0 uM.
C-C chemokine receptor type 1 (Homo sapiens), sequence (P32246 whole entry): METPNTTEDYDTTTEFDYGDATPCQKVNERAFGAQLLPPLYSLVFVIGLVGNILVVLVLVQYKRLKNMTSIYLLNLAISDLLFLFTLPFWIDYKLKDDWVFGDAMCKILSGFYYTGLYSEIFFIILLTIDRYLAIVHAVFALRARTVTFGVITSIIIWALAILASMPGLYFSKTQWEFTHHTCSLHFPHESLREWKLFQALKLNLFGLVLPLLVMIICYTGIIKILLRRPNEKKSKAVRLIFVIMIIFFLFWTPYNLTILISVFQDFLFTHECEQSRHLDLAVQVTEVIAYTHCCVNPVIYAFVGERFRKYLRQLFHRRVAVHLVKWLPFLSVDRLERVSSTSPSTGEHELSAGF
Series [10] has as its target Tyrosine-protein phosphatase non-receptor type 2 (Homo sapiens, UniProt P17706). Kind of series: Panlabs assay. Set-up: compound concentration 10 uM.
The target of series [11] is Beta-1 adrenergic receptor (Homo sapiens) (UniProt P08588). The note with it: Compound concentration 10.0 uM.
In series [12] the target is Endothelin-1 receptor (Homo sapiens) (UniProt P25101). The note with it: Compound concentration 10.0 uM.
Series [13] has as its target T1, 5-hydroxytryptamine receptor 1A (Homo sapiens) (UniProt P08908).
T1 sequence (whole entry): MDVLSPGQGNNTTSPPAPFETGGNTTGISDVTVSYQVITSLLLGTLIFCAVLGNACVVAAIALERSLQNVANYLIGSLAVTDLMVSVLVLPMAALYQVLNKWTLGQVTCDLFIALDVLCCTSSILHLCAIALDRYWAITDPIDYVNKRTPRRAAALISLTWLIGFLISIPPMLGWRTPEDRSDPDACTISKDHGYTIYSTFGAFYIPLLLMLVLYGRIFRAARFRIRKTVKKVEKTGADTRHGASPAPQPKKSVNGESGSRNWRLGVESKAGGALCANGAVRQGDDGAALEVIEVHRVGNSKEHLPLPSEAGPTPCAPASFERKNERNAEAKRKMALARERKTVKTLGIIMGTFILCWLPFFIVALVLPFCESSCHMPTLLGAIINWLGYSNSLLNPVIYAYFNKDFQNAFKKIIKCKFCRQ
The note with it: Compound concentration 10.0 uM.

Series [14] deals with Bombesin receptor (Rattus norvegicus) (UniProt P52500+P24053+Q8K418). Kind of series: Bombesin, Non-Selective Eurofins-Panlabs radioligand binding assay. The note with it: Compound concentration 10.0 uM. The series is classed as protein assay.
Series [15] is filed under the species Rattus norvegicus. The note with it: Compound concentration 10.0 uM.
For series [16], the species on record is Rattus norvegicus. Description: Inhibition of Glutamate, NMDA, Phencyclidine at 10 µM in the Eurofins-Panlabs radioligand binding assay (Eurofins_assay_233000). The series is classed as protein-complex assay. The note with it: Compound concentration 10.0 uM.
Series [17] has as its target Substance-P receptor (Homo sapiens) (UniProt P25103). Kind of series: Tachykinin NK1 Eurofins-Panlabs radioligand binding assay. The note with it: Compound concentration 10.0 uM.
The target in series [18] is Vascular endothelial growth factor receptor 1 (Homo sapiens) (UniProt P17948). Description: Protein Tyrosine Kinase, FLT1 (VEGFR-1) Eurofins-Panlabs enzyme assay. The note with it: Compound concentration 10.0 uM.
For series [19], the target named is Synaptic vesicular amine transporter (Homo sapiens) (UniProt Q05940). The note with it: Oryctolagus cuniculus; Compound concentration 10.0 uM.
Series [20] has as its target Prostaglandin E2 receptor EP4 subtype (Homo sapiens) (UniProt P35408). Description: Prostanoid EP4 Eurofins-Panlabs radioligand binding assay. On the set-up: ligand concentration 0.5 nM. The note with it: Compound concentration 10.0 uM.
The target of series [21] is D(2) dopamine receptor (Homo sapiens) (UniProt P14416). The note with it: Compound concentration 10.0 uM.
D(2) dopamine receptor (Homo sapiens), sequence (P14416 whole entry): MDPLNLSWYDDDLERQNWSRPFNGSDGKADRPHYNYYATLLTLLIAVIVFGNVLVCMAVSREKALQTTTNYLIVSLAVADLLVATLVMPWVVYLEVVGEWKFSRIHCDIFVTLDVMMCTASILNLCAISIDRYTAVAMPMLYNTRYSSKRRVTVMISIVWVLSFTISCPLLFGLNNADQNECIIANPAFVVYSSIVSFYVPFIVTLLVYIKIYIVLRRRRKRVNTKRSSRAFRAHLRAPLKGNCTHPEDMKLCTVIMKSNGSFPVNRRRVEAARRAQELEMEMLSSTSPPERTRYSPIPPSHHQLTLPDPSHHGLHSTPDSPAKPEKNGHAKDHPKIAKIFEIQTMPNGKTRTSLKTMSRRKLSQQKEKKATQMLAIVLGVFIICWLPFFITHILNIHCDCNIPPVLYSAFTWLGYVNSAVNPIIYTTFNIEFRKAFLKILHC
Series [22] has as its target monoamine oxidase MAO-B (Homo sapiens, UniProt P27338). Kind of series: Inhibition of Monoamine Oxidase MAO-B at compound concentration of 10.0 uM in the Eurofins-Panlabs enzyme assay (Eurofins_assay_140120). Set-up: substrate with concentration 50 uM Kynuramine, incubation time 60 min, incubation temperature 37 C. The note with it: recombinant human MAO-B expressed in insect Hi5 cells, probe kynuramine (50 uM), compound concentration 10 uM.

In series [23] the target is T2, Muscarinic acetylcholine receptor M1 (Homo sapiens) (UniProt P11229).
T2 sequence (whole entry): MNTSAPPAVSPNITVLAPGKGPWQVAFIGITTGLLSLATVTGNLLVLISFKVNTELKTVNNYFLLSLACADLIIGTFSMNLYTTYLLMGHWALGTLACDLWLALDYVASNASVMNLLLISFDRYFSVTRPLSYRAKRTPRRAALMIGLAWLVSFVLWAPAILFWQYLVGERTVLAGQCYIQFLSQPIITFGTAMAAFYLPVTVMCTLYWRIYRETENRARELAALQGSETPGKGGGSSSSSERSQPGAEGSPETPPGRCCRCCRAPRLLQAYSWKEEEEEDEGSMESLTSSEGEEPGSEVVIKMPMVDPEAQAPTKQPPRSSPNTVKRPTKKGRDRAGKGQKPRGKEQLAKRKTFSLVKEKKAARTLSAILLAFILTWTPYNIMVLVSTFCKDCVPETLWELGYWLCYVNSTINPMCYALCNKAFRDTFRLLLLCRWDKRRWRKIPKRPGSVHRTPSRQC
The note with it: Compound concentration 10.0 uM.

For series [24], the target named is Melanocortin receptor 4 (Homo sapiens) (UniProt P32245). Description: Inhibition of Melanocortin MC4 at 10 µM in the Eurofins-Panlabs radioligand binding assay (Eurofins_assay_251350). On the set-up: ligand concentration 0.02 nM. The note with it: Compound concentration 10.0 uM.
Melanocortin receptor 4 (Homo sapiens), sequence (P32245 whole entry): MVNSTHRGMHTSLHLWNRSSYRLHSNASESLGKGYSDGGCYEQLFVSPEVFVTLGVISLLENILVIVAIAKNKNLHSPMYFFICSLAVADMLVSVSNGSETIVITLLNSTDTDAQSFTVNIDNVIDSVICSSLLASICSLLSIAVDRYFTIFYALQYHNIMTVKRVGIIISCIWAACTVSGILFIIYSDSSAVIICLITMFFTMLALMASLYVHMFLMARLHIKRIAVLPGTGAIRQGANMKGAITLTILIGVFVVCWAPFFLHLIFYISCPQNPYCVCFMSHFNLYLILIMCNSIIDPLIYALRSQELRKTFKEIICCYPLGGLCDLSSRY
The target of series [25] is T3, 5-hydroxytryptamine receptor 2C (Homo sapiens) (UniProt P28335).
T3 sequence (whole entry): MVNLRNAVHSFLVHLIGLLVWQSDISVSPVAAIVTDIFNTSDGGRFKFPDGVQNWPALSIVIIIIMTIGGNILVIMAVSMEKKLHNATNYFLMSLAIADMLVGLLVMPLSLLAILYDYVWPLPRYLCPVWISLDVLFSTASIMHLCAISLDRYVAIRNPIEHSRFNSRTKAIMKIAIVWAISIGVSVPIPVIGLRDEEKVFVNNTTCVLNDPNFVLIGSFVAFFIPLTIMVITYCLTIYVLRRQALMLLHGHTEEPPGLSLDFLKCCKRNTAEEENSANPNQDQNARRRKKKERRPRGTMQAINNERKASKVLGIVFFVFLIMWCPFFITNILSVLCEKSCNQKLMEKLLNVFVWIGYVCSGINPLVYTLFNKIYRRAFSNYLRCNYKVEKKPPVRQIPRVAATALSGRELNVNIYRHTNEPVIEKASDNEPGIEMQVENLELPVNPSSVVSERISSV
The note with it: Compound concentration 10.0 uM.

Series [26] deals with Epidermal growth factor receptor (Homo sapiens) (UniProt P00533). Kind of series: Protein Tyrosine Kinase, EGF Receptor Eurofins-Panlabs enzyme assay. The note with it: Compound concentration 10.0 uM. On the set-up: substrate with concentration 10 µg/mL Poly(Glu:Tyr), incubation time 60 min, incubation temperature 25 °C.

Structures are written as SMILES.

Serine/threonine-protein kinase TBK1 (Homo sapiens), sequence (Q9UHD2 whole entry): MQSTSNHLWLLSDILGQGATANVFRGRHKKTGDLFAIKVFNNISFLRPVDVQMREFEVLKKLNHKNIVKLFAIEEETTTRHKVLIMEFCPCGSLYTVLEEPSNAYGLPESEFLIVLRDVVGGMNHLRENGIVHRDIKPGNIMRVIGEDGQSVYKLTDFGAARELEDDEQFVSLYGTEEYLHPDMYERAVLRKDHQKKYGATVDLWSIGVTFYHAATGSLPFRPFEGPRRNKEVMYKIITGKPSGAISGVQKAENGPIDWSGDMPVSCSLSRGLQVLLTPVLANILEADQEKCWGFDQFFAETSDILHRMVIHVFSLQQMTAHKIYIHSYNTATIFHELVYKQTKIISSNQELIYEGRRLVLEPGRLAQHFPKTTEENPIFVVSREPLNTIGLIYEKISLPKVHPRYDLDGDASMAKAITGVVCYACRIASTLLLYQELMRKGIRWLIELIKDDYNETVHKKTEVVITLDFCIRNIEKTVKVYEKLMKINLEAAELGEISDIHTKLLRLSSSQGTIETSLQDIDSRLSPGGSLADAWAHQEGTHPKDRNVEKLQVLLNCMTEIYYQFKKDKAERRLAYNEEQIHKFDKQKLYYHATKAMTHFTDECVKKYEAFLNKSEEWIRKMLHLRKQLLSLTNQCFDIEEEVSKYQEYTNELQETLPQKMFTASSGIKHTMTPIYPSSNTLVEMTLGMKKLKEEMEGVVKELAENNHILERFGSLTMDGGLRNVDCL
Peripheral plasma membrane protein CASK (Homo sapiens), sequence (O14936 whole entry): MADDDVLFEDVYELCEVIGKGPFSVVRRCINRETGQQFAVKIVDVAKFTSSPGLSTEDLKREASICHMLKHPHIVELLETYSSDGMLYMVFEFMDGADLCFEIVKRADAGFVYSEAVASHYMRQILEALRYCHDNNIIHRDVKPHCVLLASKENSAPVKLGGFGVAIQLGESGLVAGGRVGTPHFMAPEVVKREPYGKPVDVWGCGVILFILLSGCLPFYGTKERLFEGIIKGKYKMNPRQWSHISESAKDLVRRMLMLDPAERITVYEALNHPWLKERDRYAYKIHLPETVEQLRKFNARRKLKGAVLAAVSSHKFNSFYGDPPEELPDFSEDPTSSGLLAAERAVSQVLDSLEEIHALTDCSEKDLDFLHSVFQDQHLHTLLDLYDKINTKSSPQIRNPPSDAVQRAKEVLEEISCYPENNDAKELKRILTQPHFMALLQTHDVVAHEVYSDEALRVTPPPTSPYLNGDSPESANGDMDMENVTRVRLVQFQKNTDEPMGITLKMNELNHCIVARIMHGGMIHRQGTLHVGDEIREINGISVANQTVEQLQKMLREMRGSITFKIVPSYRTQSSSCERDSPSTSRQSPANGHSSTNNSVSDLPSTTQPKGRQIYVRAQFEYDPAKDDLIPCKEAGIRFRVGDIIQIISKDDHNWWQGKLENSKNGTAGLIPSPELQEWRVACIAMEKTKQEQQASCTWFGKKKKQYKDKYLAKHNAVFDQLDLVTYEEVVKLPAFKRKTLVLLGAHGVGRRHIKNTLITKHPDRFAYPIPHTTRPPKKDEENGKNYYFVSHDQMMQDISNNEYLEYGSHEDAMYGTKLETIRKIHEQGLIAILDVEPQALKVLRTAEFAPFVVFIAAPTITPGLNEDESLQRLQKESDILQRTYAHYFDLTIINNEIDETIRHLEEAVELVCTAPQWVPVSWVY
Mitogen-activated protein kinase kinase kinase 10 (Homo sapiens), sequence (Q02779 whole entry, looked up, canonical isoform): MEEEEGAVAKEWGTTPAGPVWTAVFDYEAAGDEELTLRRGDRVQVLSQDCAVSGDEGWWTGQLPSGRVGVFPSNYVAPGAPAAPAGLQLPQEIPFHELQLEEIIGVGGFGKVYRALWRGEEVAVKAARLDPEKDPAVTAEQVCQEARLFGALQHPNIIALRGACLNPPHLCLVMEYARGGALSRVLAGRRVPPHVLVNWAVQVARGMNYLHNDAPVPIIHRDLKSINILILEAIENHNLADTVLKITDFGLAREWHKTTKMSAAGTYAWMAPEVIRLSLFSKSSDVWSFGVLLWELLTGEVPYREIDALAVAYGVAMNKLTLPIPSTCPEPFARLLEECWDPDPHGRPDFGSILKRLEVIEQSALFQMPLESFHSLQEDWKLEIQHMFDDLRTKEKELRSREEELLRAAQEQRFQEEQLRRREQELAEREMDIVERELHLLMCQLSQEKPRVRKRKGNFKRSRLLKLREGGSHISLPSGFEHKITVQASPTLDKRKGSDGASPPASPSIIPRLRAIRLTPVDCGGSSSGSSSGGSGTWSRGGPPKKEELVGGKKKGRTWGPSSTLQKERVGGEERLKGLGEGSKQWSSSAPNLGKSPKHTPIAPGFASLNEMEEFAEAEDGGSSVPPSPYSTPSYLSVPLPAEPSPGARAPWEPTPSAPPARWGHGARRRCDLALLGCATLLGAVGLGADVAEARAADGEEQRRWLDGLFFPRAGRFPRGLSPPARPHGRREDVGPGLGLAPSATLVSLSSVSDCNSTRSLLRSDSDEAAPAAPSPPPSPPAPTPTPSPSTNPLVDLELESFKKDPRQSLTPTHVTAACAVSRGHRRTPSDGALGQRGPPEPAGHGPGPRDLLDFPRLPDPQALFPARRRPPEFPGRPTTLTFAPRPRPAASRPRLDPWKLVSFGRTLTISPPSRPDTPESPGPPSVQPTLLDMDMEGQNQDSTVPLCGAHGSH
Mitogen-activated protein kinase 10 (Homo sapiens), sequence (P53779 whole entry): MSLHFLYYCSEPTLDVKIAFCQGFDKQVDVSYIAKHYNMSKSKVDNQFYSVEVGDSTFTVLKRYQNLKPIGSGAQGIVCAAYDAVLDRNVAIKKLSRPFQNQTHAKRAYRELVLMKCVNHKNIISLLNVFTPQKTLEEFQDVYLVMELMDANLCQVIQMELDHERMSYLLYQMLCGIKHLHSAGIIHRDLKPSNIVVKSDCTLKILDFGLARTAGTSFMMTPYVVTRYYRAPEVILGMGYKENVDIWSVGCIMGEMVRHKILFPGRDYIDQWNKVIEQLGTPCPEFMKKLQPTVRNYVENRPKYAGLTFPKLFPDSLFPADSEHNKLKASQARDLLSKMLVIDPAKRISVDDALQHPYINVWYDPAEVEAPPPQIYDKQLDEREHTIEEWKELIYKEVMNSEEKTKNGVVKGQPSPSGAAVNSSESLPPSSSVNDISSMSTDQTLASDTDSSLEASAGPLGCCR

In the case of `N#CC1(c2ccccn2)CCN(Cc2cc(C(=O)N3CCCC3)c(=O)n3ccccc23)CC1`, the residual activity in [1] is 100%; in series [2], 100%; in series [3], 100%; in series [4], 91%; in [5], 96%; in series [6] it was 99%. The residual activity is 98% in [7] and 73% in [8].
For `N#CC1(c2ccccn2)CCN(Cc2cc(C(=O)O)c(=O)n3ccccc23)CC1` [MSD-M1PAM], the inhibition (in general, the drop in the measured response relative to a control, in per cent) was 8% in series [9]; 2% in [11]; -1% in series [12]; 2% in series [13]; 6% in [14]; -4% in series [15]. Besides, the inhibition in [16] was 11%; in [17] it was 0%; in [18] it was 0%; in [19], 9%; in series [20], -4%; in series [21], -9%. Also, the inhibition in series [23] is 3%; in series [24] it was -1%; in series [25], -8%; in series [26] it was 5%. Further, in series [10], the IC50 (in general, the concentration at which inhibition is half-maximal) is recorded as 10 µM (not active). Further, the residual activity is 100% in series [1]; 97% in series [2]; 100% in series [4]; 82% in series [5]; 98% in [6]; 86% in series [7]. Further, the inhibition at 60 min, 10 µM in series [22] was -5% (not active).
